According to US12060329B1, “6′-(2-bromophenyl)-2′-ethoxy-3,4′-bipyridine-3′-carbonitrile as an antioxidant compound” (KING FAISAL UNIVERSITY, priority 2023, dated 2024):

Test: DPPH radical scavenging antioxidant test
Assay type: biochemical
Conditions: 517 nm; for Inhibition (radical scavenging inhibition): compound 3 μM in ethanol, 0.2 mL DPPH (0.75 mM), 30 minutes in the dark
Procedure: The antioxidant activity of 6′-(2-bromophenyl)-2′-ethoxy-3,4′-bipyridine-3′-carbonitrile was investigated by 2,2-diphenyl-1-picrylhydrazyl (DPPH) in vitro tests that employ vitamin C as the positive control.
The antioxidant properties of the 6′-(2-bromophenyl)-2′-ethoxy-3,4′-bipyridine-3′-carbonitrile compound were studied by adding 0.2 mL DPPH (0.75 mM)) to 6′-(2-bromophenyl)-2′-ethoxy-3,4′-bipyridine-3′-carbonitrile (3 μM) (4) in ethanol. After 30 minutes of incubation in the dark, the absorbance was read against a blank at 517 nm. Ascorbic acid (vitamin C) was used as standard antioxidants (positive control). A blank sample was prepared by 0.2 mL of DPPH in 3 mL ethanol. A negative control sample was run using ethanol instead of the sample. The radical scavenging inhibition was calculated using the following equation: […]
The antioxidant activity for the synthesized compound is listed in Table 1, using Vitamin C as a reference.

| SMILES | antioxidant potential to vanish the DPPH radical colors (in words) (DPPH in vitro test, vitamin C as positive control) | Inhibition (radical scavenging inhibition) [%] |
| --- | --- | --- |
| CCOc1nc(-c2ccccc2Br)cc(-c2cccnc2)c1C#N [Product 4, 6′-(2-bromophenyl)-2′-ethoxy-3,4′-bipyridine-3′-carbonitrile] | high potential as an antioxidant compared to vitamin C | 50 |
| O=C1O[C@H]([C@@H](O)CO)C(O)=C1O [vit c, Ascorbic acid, reference compound] | – | 74 |
